Values of other authors, collected in article PMC3066546, “Development of modified nucleosides that have supremely high anti-HIV activity and low toxicity and prevent the emergence of resistant HIV mutants” (Proceedings of the Japan Academy. Series B, Physical and …, 2011).
Where two headings read alike, the source gives them in different places. Blank lines part the entries; values can stand above or below the molecule they belong to.

Assays:
[1] = tested on: HIV; parameters: method as in PMID 7764216; settings: Table 1; for EC50: anti-HIV
[2] = tested on: HIV-1LAI; settings: MTT assay, MT-4 cells
[3] = cytotoxic concentration, Table 1
[4] = tested on: MT-4 cells
[5] = tested on: HXB2 (wild type HIV); parameters: method as in PMID 11087576, PMID 11577734, PMID 15200030; settings: MAGI assay
[6] = tested on: KH65R drug-resistant HIV; parameters: method as in PMID 11087576, PMID 11577734, PMID 15200030; settings: MAGI assay
[7] = tested on: L74V drug-resistant HIV; parameters: method as in PMID 11087576, PMID 11577734, PMID 15200030; settings: MAGI assay
[8] = tested on: M184V drug-resistant HIV; parameters: method as in PMID 11087576, PMID 11577734, PMID 15200030; settings: MAGI assay
[9] = tested on: M184I drug-resistant HIV; parameters: method as in PMID 11087576, PMID 11577734, PMID 15200030; settings: MAGI assay
[10] = tested on: MDR (multidrug-resistant HIV); settings: MAGI assay
[11] = tested on: Hela cells
[12] = tested on: 41/69/ 125/SG drug-resistant HIV; parameters: method as in PMID 11087576, PMID 11577734, PMID 15200030; settings: MAGI assay
[13] = tested on: HIV-1wild; parameters: method as in PMID 18487070; settings: Table 7; read-out: Anti-HIV activity (MAGI assay, µg) HIV-1wild
[14] = tested on: HIV-1MDR; parameters: method as in PMID 18487070; settings: Table 7; read-out: Anti-HIV activity (MAGI assay, µg) HIV-1MDR
[15] = tested on: HIV-1M184V; parameters: method as in PMID 18487070; settings: Table 7; read-out: Anti-HIV activity (MAGI assay, µg) HIV-1M184V
[16] = tested on: 41/215 drug-resistant HIV; parameters: method as in PMID 11087576, PMID 11577734, PMID 15200030; settings: MAGI assay

Compound: C[C@]1(CO)O[C@@H](n2cnc3c(N)ncnc32)C[C@@H]1O [C00001 Ad, 4′-C-methyl-2′-deoxyadenosine]
SI (CC50/EC50) [1]: 1.0
EC50 [1]: 2.6 µM
EC50 ([2]; Table 2): 2.6 µM
CC50 [3]: 2.6 µM
CC50 ([4]; Table 2): 2.6 µM

Compound: C[C@]1(CO)O[C@@H](n2ccc(N)nc2=O)C[C@@H]1O [C00001 Cy, 4′-C-methyl-2′-deoxycytidine]
SI (CC50/EC50) [1]: 1.8
EC50 [1]: 0.072 µM
EC50 ([2]; Table 2): 0.015 µM
EC50 [5]: 0.0058 µM
EC50 [6]: 0.0071 µM
EC50 [7]: 0.0062 µM
EC50 [8]: 0.2 µM
EC50 [9]: 0.74 µM
EC50 [10]: 0.0033 µM
CC50 [3]: 0.13 µM
CC50 ([4]; Table 2): 1 µM
CC50 ([11]; Table 4, Hela cells): > 200 µM

EC50 [1]: 7.2 µM
EC50 ([2]; Table 2): 7.2 µM
Compound: Cc1cn([C@H]2C[C@H](O)[C@@](C)(CO)O2)c(=O)[nH]c1=O [C00001 Th, 4′-C-methylthymidine]
CC50 [3]: 104 µM
CC50 ([4]; Table 2): 104 µM

Compound: C[C@@]1(CO)C=C[C@H](n2cnc3c(N)ncnc32)O1 [C00002 Ad]
SI (CC50/EC50) [1]: ∼1
EC50 [1]: > 500 µM
CC50 [3]: > 500 µM

EC50 [1]: 350 µM
Compound: C[C@@]1(CO)C=C[C@H](n2ccc(N)nc2=O)O1 [C00002 Cy]
CC50 [3]: 350 µM

Compound: Cc1cn([C@H]2C=C[C@@](C)(CO)O2)c(=O)[nH]c1=O [C00002 Th]
SI (CC50/EC50) [1]: 16
EC50 [1]: 21 µM
CC50 [3]: 330 µM

Compound: C[C@@]1(CO)CC[C@H](n2cnc3c(N)ncnc32)O1 [C00003 Ad]
SI (CC50/EC50) [1]: 13
EC50 [1]: 30 µM
CC50 [3]: 400 µM

Compound: C[C@@]1(CO)CC[C@H](n2ccc(N)nc2=O)O1 [C00003 Cy]
SI (CC50/EC50) [1]: 1
EC50 [1]: 27 µM
CC50 [3]: 27 µM

Compound: Cc1cn([C@H]2CC[C@@](C)(CO)O2)c(=O)[nH]c1=O [C00003 Th]
SI (CC50/EC50) [1]: ∼1
EC50 [1]: > 500 µM
CC50 [3]: > 500 µM

EC50 ([2]; Table 3): 0.00079 µM
Compound: N#C[C@]1(CO)O[C@@H](n2cnc3c(N)nc(N)nc32)C[C@@H]1O [C00004 2AA]
CC50 ([4]; Table 3): 0.034 µM

EC50 ([2]; Table 3): 0.051 µM
Compound: N#C[C@]1(CO)O[C@@H](n2cnc3c(N)ncnc32)C[C@@H]1O [C00004 A]
CC50 ([4]; Table 3): 12 µM

EC50 ([2]; Table 3): 0.000188 µM
Compound: N#C[C@]1(CO)O[C@@H](n2cnc3c(=O)[nH]c(N)nc32)C[C@@H]1O [C00004 G]
CC50 ([4]; Table 3): 0.034 µM

EC50 ([2]; Table 3): 0.051 µM
Compound: N#C[C@]1(CO)O[C@@H](n2cnc3c(O)ncnc32)C[C@@H]1O [C00004 I]
CC50 ([4]; Table 3): 23 µM

Compound: Nc1ccn([C@@H]2CS[C@H](CO)O2)c(=O)n1 [Compound 3TC, 2′,3′-dideoxy-3′-thia-L-cytidine, reference compound]
EC50 ([2]; Table 2): 0.1 µM
EC50 [5]: 0.71 µM
EC50 [8]: > 100 µM
EC50 [9]: > 100 µM
EC50 [12]: 9.9 µM
EC50 [10]: 1.1 µM
EC50 [13]: 1 µM
EC50 [14]: 2.8 µM
EC50 [15]: > 100 µM
CC50 [4]: > 100 µM
CC50 [11]: > 100 µM

Compound: C#C[C@]1(CO)O[C@@H](n2ccc(N)nc2=O)C[C@@H]1O [L-4′-C-ethynyl-2′-deoxycytidine]
EC50 ([2]; Table 2): > 400 µM

Compound: Cc1cn([C@H]2C=C[C@@H](CO)O2)c(=O)[nH]c1=O [d4T, 2′,3′-didehydro-3′-deoxythymidine, reference compound]
SI (CC50/EC50) [1]: >120
EC50 [1]: 4.1 µM
EC50 [13]: 7.6 µM
EC50 [14]: 64 µM
EC50 [15]: 5.6 µM
CC50 [3]: > 500 µM

Compound: Nc1ccn([C@H]2CC[C@@H](CO)O2)c(=O)n1 [ddC, reference compound]
EC50 [5]: 0.2 µM
EC50 [6]: 3 µM
EC50 [7]: 1.5 µM
EC50 [8]: 2.2 µM
EC50 [12]: 1.3 µM
EC50 [10]: 5.5 µM
CC50 [11]: > 100 µM

Compound: O=c1[nH]cnc2c1ncn2[C@H]1CC[C@@H](CO)O1 [ddI, reference compound]
EC50 [5]: 3.9 µM
EC50 [6]: 12.7 µM
EC50 [7]: 19.5 µM
EC50 [16]: 3.6 µM
EC50 [8]: 10.1 µM
EC50 [12]: 12.2 µM
EC50 [10]: 25 µM
CC50 [11]: > 100 µM
